Measured values taken from patent US4696920A, “Certain 2-substituted 1,3-propylidenediphosphonate derivatives, pharmaceutical compositions containing them and their use as antihypertensive agents” (priority 1984, dated 1987).

How the values were obtained:
[1] = tested on: mean blood pressure in rat; test: Acute intravenous hypotensive activity in anesthetized rats; format: in vivo, rat (male Wistar)
Experimental: Male Wistar rats were anesthetized with Pentobarbital (Nembutal, 60 mg/kg i.p.) and heparinized (5 mg/kg i.p.). After tracheotomy the right carotid was cannulated (catheter PE 50); blood pressure was measured with a pressure transducer (Statham P 23 db) and recorded on a polygraph (Beckman).
Animals received 0.5 and 1.5 mg/kg of the test compounds. Less than 100 μl of test compounds dissolved in 0.9% saline were injected in the jugular vein. Highly water insoluble compounds were suspended in 2% Tween-80. Injection of the vehicle alone had no detectable hypotensive effect.
Results presented are expressed as percent decrease in initial mean blood pressure (Mean±SEM).

[2] = tested on: drug receptor sites associated with calcium channels; conditions: known calcium antagonists; cited from earlier work
[3] = tested on: calcium channel binding site for [^3 H]-Nitrendipine (rat brain membranes); test: [^3 H]-Nitrendipine binding to rat brain membranes; parameters: species or system rat (male Wistar); conditions: Table 1a; for Specifically bound [^3 H]-Nitrendipine % of control value: compound concentration 1.0 μM; for Bound ^3 H at 1.0 μM / Bound ^3 H at 0.1 μM: ratio of [^3 H]-Nitrendipine bound at 1.0 and 0.1 μM compound
Experimental: (§1) Diltiazem hydrochloride was a generous gift from Goedecke A. G.
Suitable dilutions were made in 50 mM Tris-HCl buffer (pH 7.4) containing 150 mM NaCl and 1 mM CaCl2. The ethanol concentration in the final assay never exceeded 0.1%.
(§2) The purity of the radioligand and of the various agents tested was monitored by thin layer chromatography on silica gel plates.
(§3) The following procedure was adapted from Bellemann et al (Proc. Nat. Acad. Sci. 80, 2356, 1983), and Gould et al (Proc. Nat. Acad. Sci. 79, 3656, 1982).
(§4) Adult male Wistar rats weighing 250-300 g were anesthetized with carbon dioxide prior to decapitation. The brain was removed then immersed in ice-cold 0.32M sucrose and washed 2-3 times with fresh solution. Cerebral cortex was minced and homogenized (Potter-Elvehjem homogenizer) in 10 volumes of ice-cold sucrose solution. The homogenate was centrifuged (4° C.) at 1000×g for 15 minutes. The resulting supernatant was then centrifuged at 90000×g (30 minutes) and the pellet was washed twice with 20 ml ice-cold 50 mM Tris-HCl pH 7.4.
(§5) The final pellet was resuspended in 50 mM Tris-HCl pH 7.4/150 mM NaCl/1 mM CaCl2 to give a protein concentration of 4 mg/ml.
(§6) The membrane suspension was kept on ice until used. Binding assays were performed in subdued light to prevent dihydropyridine breakdown. Membrane protein (400 μg/tube) was incubated in 50 mM Tris-HCl buffer (pH 7.4)/150 mM NaCl/1 mM CaCl2 with the indicated concentrations of radioligand and test compounds or known calcium antagonists, in a total volume of 2 ml. After the indicated time intervals, the reaction was terminated by rapid filtration through Whatman GF/B glass fiber filters (2.4 cm diameter) on a Millipore filter holder. The assay tube was rinsed with 2 ml ice-cold 50 mM Tris-HCl pH (7.4) and the precipitate was further washed with 2×5 ml of the same buffer.
(§7) Filters were dried under a heat lamp and were extracted with 10 ml of liquid scintillation cocktail (Toluene/Triton X-100, 2/1 containing 4 g Omnifluor/1) prior to tritium determination at 48% counting efficiency.
(§8) Assays were performed in duplicate or triplicate.
(§9) Data were expressed as percent specific [^3 H]-Nitrendipine binding relative to the established control value.
(§10) Compound activity in the [^3 H]-Nitrendipine binding assay was evaluated by using the following criteria:
(§11) 1. [^3 H]-Nitrendipine binding at 1.0 μM compound final concentration was either below 95% or above 105% of the control value determined in absence of compound.
2. […] This ratio is indicative of a dose response relationship within the compound concentration range tested, when the value differs appreciably from 1.0.

[4] = tested on: rat trachea contraction induced by KCl depolarization; test: KCl-induced rat trachea contraction; parameters: species or system rat (male SHR, Okamoto-Aoki); conditions: for activity at 1 µM: Rattus norvegicus, 40 min, read-out: Contraction (% max.)
Experimental: Spontaneously hypertensive male rats (SHR) Okamoto-Aoki Strain, weighing 300-400 g were used in this study. They were killed by bleeding after Pentobarbital anesthesia (Nembutal, Abbott Co, 40 mg/kg). Their entire trachea was quickly removed and dissected free of fat and connective tissue in Krebs-Ringer solution. A strip (4 mm×40 mm), obtained by spirally cutting the trachea, was immediately suspended in a 50 ml Krebs-Ringer solution and continuously bubbled with a O2 /CO2 (95/5) mixture. Bath temperature was maintained at 37±1° C. The composition (mM) of the Krebs-Ringer solution modified by Nghiem, was as follows: NaCl, (118.0); KCl, (4.7); CaCl2, (2.5); MgCl2, (1.18); NaHCO3, (12.5); KH2 P04, (1.18); glucose, (5.5) in bidistilled water (pH 7.4). Each strip was equilibrated under initial tension (1.5-2 g) for 1-2 hours and the bath solution changed every 30 min. A contractile or relaxant response was isometrically measured with a force-displacement transducer (Ugo-Basile) and recorded on a polygraph (Beckman).
After equilibration, KCl was added to the bath at 65 mM final concentration. This concentration produced maximum trachea contraction. Under these conditions, a plateau phase showing a tonic sustained contraction was reached within 30 minutes. Drugs were added 30 minutes after the plateau phase has been reached (final concentration=1.0 μM). […] Recordings of the residual trachea contraction were made 40 minutes after drug addition to the bathing fluid. The initial KCl induced contraction was taken as the maximum KCl response (100%). Results were expressed as % of maximal contraction. Nifedipine, Prenylamine, Flunarizine and Diltiazem were used as reference standards to validate this assay.
All 1,3-diphosphonates and drugs were dissolved in saline (0.9% NaCl) except when water insoluble, then the compounds were dissolved in 2% ethanol. The final concentration of ethanol used has been shown not to interfere with the assay.
Results are expressed as mean values±SEM, the Student's t-test was used for statistical analysis.

[5] = tested on: [^3 H]-PN-200 110 (dihydropyridine) binding site of calcium channel, rat brain membranes; test: [^3 H]-PN-200 110 binding to rat brain membranes; parameters: species or system rat (male Wistar); conditions: Table 1b; for Specifically bound [^3 H]-PN-200 110 % of control value: compound concentration 1.0 μM; for Bound ^3 H at 1.0 μM / Bound ^3 H at 0.1 μM: ratio of [^3 H]-PN-200 110 bound at 1.0 and 0.1 μM compound
Experimental: as §1
Water insoluble compounds were dissolved in absolute ethanol to give 10 mM or 2.5 mM stock solutions. Suitable dilutions were made in 50 mM Tris-HCl buffer (pH 7.4) containing 150 mM NaCl and 1 mM CaCl2. The ethanol concentration in the final assay never exceeded 0.1%.
as §2, §3, §4, §5, §6, §7, §8, §9, §10, §11
2. The ratio obtained by dividing the amount of specifically found [^3 H]-Nitrendipine at 1.0 μM compound final concentration by the value obtained at 0.1 μM test compound, was smaller than 0.9 or greater than 1.1. This ratio is indicative of a dose response relationship within the compound concentration range tested, when the value differs appreciably from 1.0.
Note: In some experiments [^3 H]-PN200 110, a new and commercially available specific dihydropyridine was used instead of [^3 H]-Nitrendipine.

[6] = Rattus norvegicus, iv, read-out: Decrease in mean blood pressure (% pretest)

Row | SMILES | Specifically bound [^3 H]-Nitrendipine % of control value [3] | Bound ^3 H at 1.0 μM / Bound ^3 H at 0.1 μM [3] | inhibition in vivo at 0.5 mg/kg [1, 6] | inhibition in vivo at 1.5 mg/kg [1, 6] | also measured
1 | C[C@H](CS)C(=O)N1CCC[C@H]1C(=O)O [Captopril, reference compound] | – | – | – | – | inhibition in vivo at 1 mg/kg [1, 6]: 0%
2 | C(=C\c1ccccc1)/CN1CCN(C(c2ccccc2)c2ccccc2)CC1 [Cinnarizine] | – | – | – | – | effect on [^3 H]-Nitrendipine binding (in words) [2]: reduce [^3 H]-Nitrendipine binding affinity
3 | CCOP(=O)(CC(Cc1ccccc1)CP(=O)(OCC)OCC)OCC [Compound 25, Tetraethyl 2-benzyl-1,3-propylidenediphosphonate] | 100 % of control value | 1.060 | 23.2 ± 2.2% | 41.4 ± 1% | activity at 1 µM [4]: 53 ± 2.5%; activity on KCl-induced trachea contraction (in words) ([4]; final concentration 1.0 μM): potent pharmacological activity
4 | CCOP(=O)(CC(CCc1ccccc1)CP(=O)(OCC)OCC)OCC [Compound 26] | 89 % of control value | 1.018 | 18.1 ± 3% | 41.6 ± 1.3% | –
5 | CCOP(=O)(CC(CCCc1ccccc1)CP(=O)(OCC)OCC)OCC [Compound 27] | 95 % of control value | 0.982 | 25.6 ± 2.2% | 35 ± 4.7% | –
6 | CCOP(=O)(CC(Cc1ccc(Cl)cc1)CP(=O)(OCC)OCC)OCC [Compound 30] | 99 % of control value | 1.003 | 17% | 34.4 ± 5.1% | activity at 1 µM [4]: 90%
7 | CCOP(=O)(CC(CCOc1ccccc1)CP(=O)(OCC)OCC)OCC [Compound 33] | – | – | 13.2% | 16 ± 0.6% | –
8 | CCOP(=O)(CC(Cc1cc(OC)c(OC)c(OC)c1)CP(=O)(OCC)OCC)OCC [Compound 36] | 100 % of control value | 0.966 | 39.9 ± 1.6% | – | –
9 | CCCOP(=O)(CC(CCOc1ccccc1)CP(=O)(OCCC)OCCC)OCCC [Compound 52] | – | – | – | – | Specifically bound [^3 H]-PN-200 110 % of control value [5]: 9 % of control value; Bound ^3 H at 1.0 μM / Bound ^3 H at 0.1 μM [5]: 0.227
10 | CCCCOP(=O)(CC(CCOc1cc(C)ccc1C)CP(=O)(OCCCC)OCCCC)OCCCC [Compound 77] | – | – | – | – | Specifically bound [^3 H]-PN-200 110 % of control value [5]: 19 % of control value; Bound ^3 H at 1.0 μM / Bound ^3 H at 0.1 μM [5]: 0.337
11 | CCCCOP(=O)(CC(Cc1cc(OC)c(OC)c(OC)c1)CP(=O)(OCCCC)OCCCC)OCCCC [Compound 82] | 90 % of control value | 0.886 | 40.1 ± 3.2% | – | activity at 1 µM [4]: 80 ± 4%; hypotensive activity (in words) ([1]; acute i.v., Table 4): hypotensive activity superior to that of classical hypotensive drugs and of the calcium antagonists used as references
12 | CCCCOP(=O)(CC(CCCc1ccc([N+](=O)[O-])cc1[N+](=O)[O-])CP(=O)(OCCCC)OCCCC)OCCCC [Compound 98] | – | – | – | – | Specifically bound [^3 H]-PN-200 110 % of control value [5]: 19 % of control value; Bound ^3 H at 1.0 μM / Bound ^3 H at 0.1 μM [5]: 0.780
